The source made the active and inactive calls. No cut-off for these calls is given here.
Experiments:
Rattus norvegicus [1] = organism: Rattus norvegicus; assay: Anticonvulsant activity against PTZ-induced epileptic seizure Sprague-Dawley rat model assessed as duration of seizure compound infused into hippocampal region and 10 mins later injected with PTZ and measured for 2 hrs post PTZ-stimulation (reference value: 376 +/- 76.43 sec); type: functional
Rattus norvegicus [2] = organism: Rattus norvegicus; assay: Anticonvulsant activity against PTZ-induced epileptic seizure Sprague-Dawley rat model assessed as mortality rate compound infused into hippocampal region and 10 mins later injected with PTZ and measured for 2 hrs post PTZ-stimulation (reference value: 33.33%); type: functional
Rattus norvegicus [3] = organism: Rattus norvegicus; assay: Anticonvulsant activity against PTZ-induced epileptic seizure Sprague-Dawley rat model assessed as latency time of seizures compound infused into hippocampal region and 10 mins later injected with PTZ and measured for 2 hrs post PTZ-stimulation (reference value: 108.5 +/- 8.63 sec); type: functional
[4] = biological target: T1, KCNMA1/KCNMB4 (Rattus norvegicus) (UniProt Q62976+Q9ESK8); assay: Inhibition of BK alpha/beta-4 in PTZ-stimulated rat hippocampal pyramidal neurons assessed as slower decay of after hyperpolarization at 300 pA at -80mV holding potential measured after 10 mins by whole cell current clamp assay; type: protein-complex assay
Rattus norvegicus [5] = organism: Rattus norvegicus; assay: (§1) Neuroprotective activity in PTZ-induced epileptic seizure Sprague-Dawley rat model assessed as inhibition of hippocampal destruction by measuring increase in Nissl stained pyramidal neurons in contralateral hippocampus CA1 region compound infused into hippocampal region and 10 mins later injected with PTZ and measured after 3 days by Nissl staining based microscopic analysis; type: functional, organism-based
Rattus norvegicus [6] = organism: Rattus norvegicus; assay: Anticonvulsant activity against PTZ-induced epileptic seizure Sprague-Dawley rat model assessed as reduction in mortality rate compound infused into hippocampal region and 10 mins later injected with PTZ and measured for 2 hrs post PTZ-stimulation; type: functional, organism-based
[7] = biological target: T1, KCNMA1/KCNMB4 (Rattus norvegicus); assay: Inhibition of BK alpha/beta-4 in PTZ-stimulated rat hippocampal pyramidal neurons assessed as larger action potential width at 300 pA current injection at -80mV holding potential measured after 10 mins by whole cell current clamp assay; type: protein-complex assay
Rattus norvegicus [8] = organism: Rattus norvegicus; assay: (§2) Inhibition of C-Fos expression in PTZ-induced epileptic seizures Sprague-Dawley rat model assessed as inhibition of FLI-positive granular neurons in DG region of ipsilateral hippocampus at 10 uM compound infused into hippocampal region and 10 mins later injected with PTZ and measured after 2 hrs by immunohistochemistry; type: functional, organism-based
Rattus norvegicus [9] = organism: Rattus norvegicus; assay: as §2, with “pyramidal” for “granular”, “CA3” for “DG”; type: functional, organism-based
Rattus norvegicus [10] = organism: Rattus norvegicus; assay: Effect on neuronal network in PTZ-induced epileptic seizures Sprague-Dawley rat model assessed as lowered PSD at gamma wave band compound infused into hippocampal region and 10 mins later injected with PTZ and measured after 2 hrs by power spectral density analysis; type: functional, organism-based
Rattus norvegicus [11] = organism: Rattus norvegicus; assay: Effect on neuronal network in PTZ-induced epileptic seizures Sprague-Dawley rat model assessed as reduced total PSD frequency waves compound infused into hippocampal region and 10 mins later injected with PTZ and measured after 2 hrs by power spectral density analysis; type: functional, organism-based
Rattus norvegicus [12] = organism: Rattus norvegicus; assay: Effect on neuronal network in PTZ-induced epileptic seizures Sprague-Dawley rat model assessed as lowered PSD at delta wave band compound infused into hippocampal region and 10 mins later injected with PTZ and measured after 2 hrs by power spectral density analysis; type: functional, organism-based
Rattus norvegicus [13] = organism: Rattus norvegicus; assay: as §2, with “pyramidal” for “granular”, “CA3” for “DG”, “contralateral” for “ipsilateral”; type: functional, organism-based
Rattus norvegicus [14] = organism: Rattus norvegicus; assay: as §1, with “CA3” for “CA1”; type: functional, organism-based
[15] = biological target: T1, KCNMA1/KCNMB4 (Rattus norvegicus); assay: Inhibition of BK alpha/beta-4 in PTZ-stimulated rat hippocampal pyramidal neurons assessed as increase in AHP size at 300 pA at -80mV holding potential measured after 10 mins by whole cell current clamp assay; type: protein-complex assay
Rattus norvegicus [16] = organism: Rattus norvegicus; assay: as §1, with “granular” for “pyramidal”, “DG” for “CA1”; type: functional, organism-based
KCNMA1/KCNMB4 = KCNMA1/KCNMB4 (Homo sapiens, UniProt Q12791+Q86W47); assay: Inhibition of human BK alpha/beta4 channel expressed in HEK293T cells assessed as K+ outward current fraction at 10 uM at -80 mV holding potential by whole cell patch clamp method relative to control; type: cell-based
Rattus norvegicus [17] = organism: Rattus norvegicus; assay: Effect on neuronal network in PTZ-induced epileptic seizures Sprague-Dawley rat model assessed as lowered PSD at theta wave band compound infused into hippocampal region and 10 mins later injected with PTZ and measured after 2 hrs by power spectral density analysis; type: functional, organism-based
Rattus norvegicus [18] = organism: Rattus norvegicus; assay: Effect on neuronal network in PTZ-induced epileptic seizures Sprague-Dawley rat model assessed as lowered PSD at beta wave band compound infused into hippocampal region and 10 mins later injected with PTZ and measured after 2 hrs by power spectral density analysis; type: functional, organism-based
Rattus norvegicus [19] = organism: Rattus norvegicus; assay: as §2, with “contralateral” for “ipsilateral”; type: functional, organism-based
[20] = biological target: T2, Calcium-activated potassium channel subunit beta-4 (Homo sapiens, UniProt Q86W47); assay: Binding affinity to NT-495 fluorophore reagent labelled human BK beta4 (45 to 166 residues) incubated for 30 mins by microscale thermophoresis assay
T2 sequence (Q86W47 whole entry): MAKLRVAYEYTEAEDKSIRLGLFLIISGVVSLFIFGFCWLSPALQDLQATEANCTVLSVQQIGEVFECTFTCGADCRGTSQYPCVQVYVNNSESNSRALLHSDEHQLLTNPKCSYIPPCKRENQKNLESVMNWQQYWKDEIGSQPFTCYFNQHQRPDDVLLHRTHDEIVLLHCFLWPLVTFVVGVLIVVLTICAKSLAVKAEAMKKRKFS

Rattus norvegicus [21] = organism: Rattus norvegicus; assay: Effect on neuronal network in PTZ-induced epileptic seizures Sprague-Dawley rat model assessed as lowered PSD at alpha wave band compound infused into hippocampal region and 10 mins later injected with PTZ and measured after 2 hrs by power spectral density analysis; type: functional, organism-based
Rattus norvegicus [22] = organism: Rattus norvegicus; assay: Anticonvulsant activity against PTZ-induced epileptic seizures Sprague-Dawley rat model assessed as decrease in number of seizures at high stage (stage 4 and 5) compound infused into hippocampal region and 10 mins later injected with PTZ and measured for 2 hrs post-PTZ stimulation; type: functional, organism-based
Rattus norvegicus [23] = organism: Rattus norvegicus; assay: as §1, with “ipsilateral” for “contralateral”, “CA3” for “CA1”; type: functional, organism-based
Rattus norvegicus [24] = organism: Rattus norvegicus; assay: as §1, with “granular” for “pyramidal”, “ipsilateral” for “contralateral”, “DG” for “CA1”; type: functional, organism-based
Rattus norvegicus [25] = organism: Rattus norvegicus; assay: Inhibition of field potential response in PTZ-induced epileptic seizure Sprague-Dawley rat model compound infused into hippocampal region and 10 mins later injected with PTZ and measured after 2 hrs by microarray electrode based analysis; type: functional, organism-based

inhibition [4] | inhibition [7] | inhibition [15] | Ratio (KCNMA1/KCNMB4) | SMILES | Time (Rattus norvegicus [1]) [s] | Time (Rattus norvegicus [3]) [s] | Activity (Rattus norvegicus [5]) | Activity (Rattus norvegicus [6]) | inhibition (Rattus norvegicus [8]) | inhibition (Rattus norvegicus [9]) | Activity (Rattus norvegicus [10]) | inhibition (Rattus norvegicus [11]) | Activity (Rattus norvegicus [12]) | inhibition (Rattus norvegicus [13]) | Activity (Rattus norvegicus [17]) | Activity (Rattus norvegicus [18]) | inhibition (Rattus norvegicus [19]) | Activity (Rattus norvegicus [21]) | Activity (Rattus norvegicus [22]) | further results
 |  |  |  | CCCC(CCC)C(=O)O [VALPROIC ACID] | 181.25 | 156.63 |  |  |  |  |  |  |  |  |  |  |  |  |  | mortality (Rattus norvegicus [2]): 0%
inactive | Active | inactive | 0.8 | CC[C@H](C)[C@H](NC(=O)[C@H](CC(C)C)NC(=O)CNC(=O)[C@H](Cc1ccccc1)NC(=O)[C@H](CO)NC(=O)CN)C(=O)N[C@@H](CC(=O)O)C(=O)N[C@H](C(=O)N[C@@H](CCCCN)C(=O)N[C@H]1CSSC[C@@H]2NC(=O)[C@H](CCCCN)NC(=O)CNC(=O)[C@H](CCC(N)=O)NC(=O)CNC(=O)[C@H](CO)NC(=O)CNC(=O)[C@H]([C@@H](C)O)NC(=O)[C@H](C(C)C)NC(=O)[C@H](CCC(=O)O)NC(=O)[C@H](CCCCN)NC(=O)[C@@H]3CSSC[C@@H](C(=O)N[C@@H](Cc4ccc(O)cc4)C(=O)O)N[C@@H](CCCNC(=N)N)C(=O)[C@H](CSSC[C@H](NC(=O)[C@H](CCC(=O)O)NC(=O)[C@H](CO)NC(=O)[C@H](CO)NC(=O)[C@H](C)NC(=O)[C@H](Cc4ccccc4)NC1=O)C(=O)N[C@@H](Cc1c[nH]c4ccccc14)C(=O)N[C@@H]([C@@H](C)O)C(=O)N[C@@H](C)C(=O)N3)N[C@@H](CCC(N)=O)C(=O)NC(=O)[C@H](CC(N)=O)NC(=O)[C@H](CC(N)=O)NC(=O)[C@H](CCC(N)=O)NC2=O)C(C)C | 316.66 to 353.33 | 219.5 to 266.5 | inactive | inactive | inactive | inactive | Active | inactive | inactive | inactive | inactive | inactive | inactive | inactive | inactive | Activity (Rattus norvegicus [14]): Active; Activity (Rattus norvegicus [16]): Active; Kd [20]: Not Active
inactive | Active | inactive | 0.74 | CC[C@H](C)[C@H](NC(=O)[C@H](CC(C)C)NC(=O)CNC(=O)[C@H](Cc1ccccc1)NC(=O)[C@H](CO)NC(=O)CN)C(=O)N[C@@H](CC(=O)O)C(=O)N[C@H](C(=O)N[C@@H](CCCCN)C(=O)N[C@H]1CSSC[C@@H]2NC(=O)[C@H](CCCCN)NC(=O)CNC(=O)[C@H](C)NC(=O)CNC(=O)[C@H](CO)NC(=O)CNC(=O)[C@H]([C@@H](C)O)NC(=O)[C@H](C(C)C)NC(=O)[C@H](CCCCN)NC(=O)[C@H](CCCCN)NC(=O)[C@@H]3CSSC[C@@H](C(=O)N[C@@H](Cc4ccc(O)cc4)C(=O)O)N[C@@H](CCCNC(=N)N)C(=O)[C@H](CSSC[C@H](NC(=O)[C@H](CCC(=O)O)NC(=O)[C@H](CO)NC(=O)[C@H](CO)NC(=O)[C@H](C)NC(=O)[C@H](Cc4ccccc4)NC1=O)C(=O)N[C@@H](Cc1c[nH]c4ccccc14)C(=O)N[C@@H]([C@@H](C)O)C(=O)N[C@@H](C)C(=O)N3)N[C@@H](CCC(N)=O)C(=O)NC(=O)[C@H](CC(N)=O)NC(=O)[C@H](CC(N)=O)NC(=O)[C@H](CCC(N)=O)NC2=O)C(C)C | 316.66 to 353.33 | 219.5 to 266.5 | inactive | inactive | inactive | inactive | inactive | inactive | inactive | inactive | inactive | inactive | inactive | inactive | inactive | Activity (Rattus norvegicus [23]): Active; Activity (Rattus norvegicus [24]): Active; Kd ([20]; read-out: Kd): 640 µM; inhibition (Rattus norvegicus [25]): inactive

From ChEMBL document CHEMBL4354835, “Selective Blockade of Neuronal BK (α + β4) Channels Preventing Epileptic Seizure” (J Med Chem, 2020)
